Source: patent US4766111A, “Lipids with plasmin inhibitory properties” (Trustees of Boston University, priority 1987, dated 1988)
Values joined by “and” are separate entries in the source; they are usually repeats but may differ in a detail not shown here. Equal entries are not always repeated.

B1: ACTIVATED PURE PLASMINOGEN: activated pure plasminogen, positive reference in Test 3 (protein, UniProt P00747 20-580; P00747 581-810, looked up)
Plasmin heavy chain A: EPLDDYVNTQGASLFSVTKKQLGAGSIEECAAKCEEDEEFTCRAFQYHSKEQQCVIMAENRKSSIIIRMRDVVLFEKKVYLSECKTGNGKNYRGTMSKTKNGITCQKWSSTSPHRPRFSPATHPSEGLEENYCRNPDNDPQGPWCYTTDPEKRYDYCDILECEEECMHCSGENYDGKISKTMSGLECQAWDSQSPHAHGYIPSKFPNKNLKKNYCRNPDRELRPWCFTTDPNKRWELCDIPRCTTPPPSSGPTYQCLKGTGENYRGNVAVTVSGHTCQHWSAQTPHTHNRTPENFPCKNLDENYCRNPDGKRAPWCHTTNSQVRWEYCKIPSCDSSPVSTEQLAPTAPPELTPVVQDCYHGDGQSYRGTSSTTTTGKKCQSWSSMTPHRHQKTPENYPNAGLTMNYCRNPDADKGPWCFTTDPSVRWEYCNLKKCSGTEASVVAPPPVVLLPDVETPSEEDCMFGNGKGYRGKRATTVTGTPCQDWAAQEPHRHSIFTPETNPRAGLEKNYCRNPDGDVGGPWCYTTNPRKLYDYCDVPQCAAPSFDCGKPQVEPKKCPGR
Plasmin light chain B: VVGGCVAHPHSWPWQVSLRTRFGMHFCGGTLISPEWVLTAAHCLEKSPRPSSYKVILGAHQEVNLEPHVQEIEVSRLFLEPTRKDIALLKLSSPAVITDKVIPACLPSPNYVVADRTECFITGWGETQGTFGAGLLKEAQLPVIENKVCNRYEFLNGRVQSTELCAGHLAGGTDSCQGDSGGPLVCFEKDKYILQGVTSWGLGCARPNKPGVYVRVSRFVTWIEGVMRNN
modifications: Plasmin

Columns and labels:
Format in all cases: biochemical
purified plasminogen = purified plasminogen (Homo sapiens, UniProt P00747); experiment: Test 3: plasminogen activatory activity, sample incubated with purified plasminogen
Procedure: In a third test, each fraction was incubated with purified plasminogen so as to enhance activity, because normal human pooled plasma contains plasma proteins inhibitors.
(§1) In Test 2, 30 μl of a 1:40 dilution of normal human plasma were used, and in Test 3, 30 µl of 40 M/L of pure plasminogen were used. The results, shown as ΔmA/min, represents the average of five readings.

plasmin = plasmin (Homo sapiens, UniProt P00747); experiment: Antiplasmin/plasmin inhibitory activity; details: Table 3; for ABSORBANCE: absorbance at 405nm, remaining active plasmin, substrate S-225; for % INHIBITION: by reference to normal human pooled plasma standard curve
Procedure: Fifty-four different runs were conducted, using various compounds and compositions. […] A standard curve is then constructed, by diluting the pooled plasma, and mixing each dilution with a known plasmin standard. Quantity of active plasmin remaining is measured and this quantity is inversely proportional to antiplasmin activity.

[1] = Test 1: plasmin/plasmin-like activity, cleavage of substrate by the sample; details: Table 2
Procedure: as §1, with “Each fraction was diluted 1:5 in TRIS buffer (50 mM, pH 7.4, I 0.15), and then mixed with the substrate. […] In” for “In”, “40 M/L” left out

[2] = tested on: normal human blood pooled plasma; experiment: Test 2: plasminogen activity, sample incubated with normal human pooled plasma; details: Table 2
Procedure: Following this, the samples, diluted, were incubated with normal human blood pooled plasma, which had been diluted 1:40 in TRIS buffer, in proportions of 1 part fraction to two parts plasma. These combinations were incubated to determine if the fractions had plasminogen activator properties.
as §1

[3] = Table I, sample 1:5 dilution, pure plasminogen, average of five readings

purified plasminogen, sequence (P00747 20-810 limits assumed): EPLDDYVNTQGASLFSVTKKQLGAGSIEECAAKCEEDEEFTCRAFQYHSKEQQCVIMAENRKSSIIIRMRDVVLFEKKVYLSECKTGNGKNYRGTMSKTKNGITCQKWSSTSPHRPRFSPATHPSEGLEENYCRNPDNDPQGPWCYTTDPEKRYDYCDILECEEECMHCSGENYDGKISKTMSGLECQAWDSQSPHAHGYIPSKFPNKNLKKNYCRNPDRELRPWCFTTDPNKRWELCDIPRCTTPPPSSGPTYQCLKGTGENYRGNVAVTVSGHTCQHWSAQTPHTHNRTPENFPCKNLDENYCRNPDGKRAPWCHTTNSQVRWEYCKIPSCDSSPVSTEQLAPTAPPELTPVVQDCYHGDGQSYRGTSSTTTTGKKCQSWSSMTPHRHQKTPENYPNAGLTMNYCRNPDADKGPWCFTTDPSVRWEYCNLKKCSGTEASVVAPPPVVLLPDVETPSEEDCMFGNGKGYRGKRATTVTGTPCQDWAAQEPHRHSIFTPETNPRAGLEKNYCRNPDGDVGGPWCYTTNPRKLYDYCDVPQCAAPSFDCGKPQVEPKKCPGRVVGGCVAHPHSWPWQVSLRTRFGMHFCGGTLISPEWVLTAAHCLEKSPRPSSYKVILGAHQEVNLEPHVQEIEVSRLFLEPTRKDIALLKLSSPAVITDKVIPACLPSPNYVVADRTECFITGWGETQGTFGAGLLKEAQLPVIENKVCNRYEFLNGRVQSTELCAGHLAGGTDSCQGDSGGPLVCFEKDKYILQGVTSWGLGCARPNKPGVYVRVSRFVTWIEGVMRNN

| Molecule | Plasminogen Activatory Activity (purified plasminogen; Table 2) | ABSORBANCE (plasmin) | Plasmin Activity [1] | Plasminogen Activity [2] | % INHIBITION (plasmin) | Plasminogen Activatory Activity (purified plasminogen; [3]) |
| --- | --- | --- | --- | --- | --- | --- |
| CERAMIDE GALACTOSIDE [PURIFIED CERAMIDE GALACTOSIDE] | 0 | 0.176 and 0.192 | 0 | 0 | – | – |
| CERAMIDE TRIHEXOSIDE [PURIFIED CERAMIDE TRIHEXOSIDE] | 0 | 0.184 | 0 | 0 | 0% | – |
| DIGALACTOSYL DIGLYCERIDE [PURIFIED DIGALACTOSYL DIGLYCERIDE] | 0 | 0.190 | 0 | 0 | 0% | – |
| PHOSPHATIDYL INOSITOL 4-MONOPHOSPHATE | – | Turbid | – | – | – | – |
| PHOSPHATIDYL INOSITOL [PURIFIED PHOSPHATIDYL INOSITOL] | 0 | 0.187 | 0 | 0 | 0% | – |
| PURE PLASMINOGEN: purified plasminogen used in Test 3, tested alone | – | – | – | – | – | 0 ΔmA/min |
| SPHINGOMYELIN | – | – | – | – | 18% | – |
| B1 | – | – | – | – | – | 19 ΔmA/min and 18 ΔmA/min |
